In patent US8445516B2, “Pharmaceutical composition for promoting angiogenesis” (Otsuka Pharmaceutical Co., Ltd., priority 2004, dated 2013):

Tests used:
Assay type in all cases: cell-based
[1] = tested on: thoracic aortic ring specimens of rat; test: Rat aortic ring culture: angiogenesis promoting action (newly grown micro-vessels); settings: for Number of micro-vessels: 7 days culture, mean ± SE, control 20 ± 2
Description: The test was conducted according to a report by Nicosia R. F. et al. (In Vitro Cell Dev Biol 26, 119-128, 1990). Briefly, thoracic aorta was removed from rat under ether anesthesia, and aortic rings were obtained by cross-sectioning at 1 mm intervals. The aortic rings were embedded into type I collagen gel (Koken Co.). Further, MCDB131 medium (Gibco BRL Co.) containing the Test Compound A was added to the upper layer, and the medium was exchanged every three days. After 7 days from the culture, micro-vessels newly grown from a cutting section of the aortic ring specimens were stained with alkaline phosphatase, then numbers of micro-vessels observed based on digital camera image were counted by using Scion Image (Scion Corp.). The statistical analysis was performed as follows: Data were analyzed using Dunnett's test with randamized block design. The difference between test compound groups and non-treated group were considered statistical significant at P<0.05.

[2] = tested on: human aortic endothelial cells; test: Luminalization (tube formation) of vascular endothelial cells in gel; settings: for Length of formed tube (Pixel): third day, mean ± SE, control 13.3 ± 0.4
Description: The test was conducted according to a report by Yasunaga, C. et al. (Lab Invest, 1989; 61: 698-704). Briefly, human aortic endothelial cells (Cambrex Corp.) were cultured in MCDB131 medium to confluent state. Cells prepared with medium containing the Test Compound A, 5×10^4 cells/well, were added on cell matrix gel (Nitta Gelatin Co.) and cultured for 4 hours to adhere cells. After medium removal, gel was added to embed cells, and medium containing the drug was added on the upper layer, then length of the formed tube was measured on the third day based on digital camera image by using Scion Image (Scion Corp.). The statistical analysis was performed as follows: Data were analyzed using Williams' test after linear regression analysis. The difference between test compound groups and non-treated group were considered statistical significant at P<0.05.

[3] = tested on: human aortic endothelial cells; test: Vascular endothelial cell migration (48 well micro chemotaxis chamber); settings: for Number of Migration cell: 4 hours, mean ± SE, control 34 ± 8
Description: The test was conducted according to a report by Witzenbichler, B. et al. (J. Biol. Chem., 273, 18514-18521, 1998). Briefly, human aortic endothelial cells (Cambrex Corp.) were cultured in MCDB131 medium to confluent state. Cell migration was tested by using a 48 well micro chemotaxis chamber (Neuro Probe Inc.). The Test Compound A was added into the lower layer of a well, while cells, 1×10^4 cells per well, were added into the upper layer, and those were cultured for 4 hours. Cells were immobilized with methanol and cells in the upper layer of a filter were removed, and cells migrated on the filter were stained with Diff Quick (International Reagents Corp.), then numbers of migrated endothelial cells observed from digital camera image were counted by using Scion Image (Scion Corp.). The statistical analysis was performed as follows: Data were analyzed using Williams' test after linear regression analysis. The difference between test compound groups and non-treated group were considered statistical significant at P<0.05.

[4] = dose dependent manner, compared with non-treated control group

In the case of `CCC(=O)Nc1c(C)cc(C(=O)N2CCC(N(C)CCc3ccccc3)CC2)cc1C` [Test Compound A, 4-[N-methyl-N-(2-phenylethyl)amino]-1-(3,5-dimethyl-4-propionylaminobenzoyl)piperidine], the Number of micro-vessels ([1]; Concentration 6 (−Log M)) is reported as 35 ± 4, the Number of micro-vessels ([1]; Concentration 7 (−Log M)) is reported as 33 ± 3 and the Number of micro-vessels ([1]; Concentration 8 (−Log M)) is reported as 32 ± 4. The Number of micro-vessels ([1]; Concentration 9 (−Log M)) was 27 ± 2, the Number of micro-vessels ([1]; Concentration 10 (−Log M)) was 30 ± 3 and the Number of micro-vessels ([1]; Concentration 11 (−Log M)) was 22 ± 3. The Number of micro-vessels ([1]; Concentration 12 (−Log M)) was 24 ± 3, the “Effect on numbers of newly grown micro-vessels (in words)” value [1, 4] was “significantly increased numbers of newly grown micro-vessels” and the “Length of formed tube (Pixel)” value ([2]; Concentration 6 (−Log M)) was 48.4 ± 5.3 Pixel. The “Length of formed tube (Pixel)” value ([2]; Concentration 7 (−Log M)) was 32.2 ± 3.8 Pixel, the “Length of formed tube (Pixel)” value ([2]; Concentration 8 (−Log M)) was 15.7 ± 0.9 Pixel and the “Effect on length of formed tube (in words)” value [2, 4] was “significantly increased length of formed tube”. The “Number of Migration cell” value ([3]; Concentration 8 (−Log M)) was 64 ± 7, the “Number of Migration cell” value ([3]; Concentration 9 (−Log M)) was 64 ± 8 and the “Number of Migration cell” value ([3]; Concentration 10 (−Log M)) was 49 ± 6. For the same compound, the “Number of Migration cell” value ([3]; Concentration 11 (−Log M)) was 42 ± 6, the “Number of Migration cell” value ([3]; Concentration 12 (−Log M)) was 41 ± 8 and the “Effect on numbers of migration cells (in words)” value [3, 4] was “significantly increased numbers of migration cells”.
